Data reported in patent US5807851A, “2,3-Benzodiazepine Derivatives as non-competitive AMPA” (Egis Gyogyszergyar Rt., priority 1997, dated 1998).

System: AMPA receptor
Assay: In vitro kainate antagonistic activity: retinal spreading depression on isolated chicken retina
Format: cell-based
Settings: isolated chicken retina preparations; spreading depression developed with 5 microM of kainate; at least 3 concentrations
Method: Antagonizing the effect of kainate (in vitro test)
The in vitro activity of the compounds was determined on isolated chicken retina preparations /M. J. Sheardown, Brain Res., 607, 189 (1993)/. The spreading depression was developped with 5 microM of kainate (the chemical name of kainic acid is 2-carboxy-4-isopropenyl-3-pyrrolidine-acetic acid), and the IC50 values were determined according to Sheardown. The compounds were tested in at least 3 concentrations. Compounds having AMPA antagonistic activity inhibit the response to the kainate having AMPA receptor agonistic activity, and the inhibition obtained depends on the concentration of the compounds.

`CC1=NN=C(c2ccc(N)cc2)c2cc3c(cc2C1)OCO3` [A, reference compound] was tested, and the IC50 was 9.5 µM.
In the case of `CC(=O)N1N=C(c2ccc(N)cc2)c2ccc(Cl)cc2CC1C` (stereo not shown) [Example 2, 3-Acetyl-1-(4-aminophenyl)-7-chloro-4-methyl-4,5-dihdyro-3H-2,3-benzodiazepine], the IC50 is reported as 3.2 µM.
Work on `CNC(=O)N1N=C(c2ccc(N)cc2)c2ccc(Cl)cc2CC1C` (stereo not shown) [Example 4, 1-(4-Aminophenyl)-7-chloro-4-methyl-3-(methylcarbamoyl)-4,5-dihydro-3H-2,3-benzodiazepine] yielded an IC50 of 3.6 µM.
In the case of `CC(=O)N1N=C(c2ccc(N)cc2)c2cc(Cl)ccc2CC1C` (stereo not shown) [Example 6, 3-Acetyl-1-(4-aminophenyl)-8-chloro-4-methyl-4,5-dihydro-3H-2,3-benzodiazepine], the IC50 is reported as 8.2 µM.
`CNC(=O)N1N=C(c2ccc(N)cc2)c2cc(Cl)ccc2CC1C` (stereo not shown) [Example 8, 1-(4-Aminophenyl)-8-chloro-4-methyl-3-methylcarbamoyl-4,5-dihydro-3H-2,3-benzodiazepine] gave an IC50 of 4.6 µM.
In the case of `CC(=O)N1N=C(c2ccc(N)cc2)c2cc(Cl)c(Cl)cc2CC1C` (stereo not shown) [Example 10, 3-Acetyl-1-(4-aminophenyl)-7,8-dichloro-4-methyl-4,5-dihydro-3H-2,3-benzodiazepine], the IC50 is reported as 2.5 µM.
Compound `CNC(=O)N1N=C(c2ccc(N)cc2)c2cc(Cl)c(Cl)cc2CC1C` (stereo not shown) [Example 12, 1-(4-Aminophenyl)-7,8-dichloro-4-methyl-3-methylcarbamoyl-4,5-dihydro-3H-2,3-benzodiazepine] has an IC50 of 1.2 µM.
